pIC50: −log10 of the molar value. Where a name gives a salt, the structure may show the parent alone.
Tests used:
TNFr = assay: TNF-R transfectant, NF-kB reporter gene (secreted phosphatase); assay type: cell-based
From the text: (§1) The secreted phosphatase sPase was used as reporter for its ability to process the luminiscent or colorimetric substrates from the culture based in the hydrolysis of substrates chemically similar to nitrophenol phosphate. Five generation of transfectants were developed as described: • 1. IL-4R. Chains of Type II IL-4-r, which is the common one within non-haematopoietic cells were transfected, as well as STAT6 which the key molecule in the nuclear signalling route by IL-4-r, and finally a reporter gene to measure the response to STAT6 was introduced. Endogenously, cells had Janus Associated Kinase 1 (JAK1) which was previously known to be associated with STAT6 via p62/aPKC. • 2. IL-6R. Chains of IL-6R were transfected and a reporter gene able to measure the response to STAT3 was introduced. As it is well known, STAT3 is a transductional molecule and a nuclear factor physiologically produced in the standard responses IL-6/IL-6R. • 3. TNF-R. In this case, a reporter gene able to measure the response to NF-kB was introduced, as this is the transductional molecule and the nuclear factor physiologically produced in response to TNF-alpha. […] LPS-Receptor complex represented by TLR4/MD2/CD14. Reporter genes with elements of response to NFkB were used as in the previous case, but the selectivity was achieved by the co-transfection of components of the LPS-R complex. The LPS is captured from the serum through the union to one plasma protein known as LBP, which transfers the LPS to the membrane protein CD14. The LBP inclusion accounts for an increase of 1000-fold the sensitivity versus media or cultures LBP-frees. The molecule CD14 is not an LPS-receptor but a module of the receptor complex which captures LBP, allowing the transference of LPS in the cellular surface to MD2. CD14 has not a cytoplasmic tail and it is not able to be a signal transducer but it substantially increases the sensitivity of the system. In a similar way, MD2 is not a signal transducer but the combination of CD14 and MD2 allows the increase of the sensitivity by 10000-fold. • 5. IL-1R. Reporter genes with elements of response to NFkB were used as in the previous case, but the selectivity was achieved by the expression of components belonging to the receptor complex IL-1R. IL-1R belongs to a receptors superfamily which uses TIR transduction domains (Toll-like IL-1R). It is known that the IL-1R route activates mitogen-activated protein kinases (MAPK) of JNK type which in turn generate nuclear factors transcriptionally active as AP-1. The reporter gene includes NFkB and AP-1 sites chained in order to simulate the physiological situation.

IL4r = assay: IL-4R transfectant, STAT6 reporter gene (secreted phosphatase); assay type: cell-based
From the text: as §1

IL6r = assay: IL-6R transfectant, STAT3 reporter gene (secreted phosphatase); assay type: cell-based
From the text: as §1

SF268 = assay: In vitro cytotoxicity, SRB method; assay type: cell-based; conditions: Homo sapiens, SF-268, SF268 glioblastoma, 72 hours
Description: (§2) SRB method was followed (Wieland, V., et al. Sulforhodamine B Assay and Chemosensitivity. Chemosensitivity, volume 1, In Vitro Assays. Methods in Molecular Medicine. Edited by Rosalyn D. Blumenthal. Humana Press, Totowa, N.J., 2005).
(§3) Cells were seeded in microplates of 96 wells. In each well, according to the cell type, specific number of cells were seeded in 200 microliters. In these conditions, cells were cultured for 3 days, with the aim of reaching their exponential phase of growing to assay the product cytotoxicity. The product concentrations were prepared just the day of treatments, after thawing the stock solutions (10 mM). After harvesting the microplate with the seeded cells for 3 days, the culture medium was discarded and replaced by 150 μl of fresh medium in each well. This was followed by the addition of 50 μl of the corresponding product dilution so as the final concentration in the final volume of 200 microliters in each well was the one scheduled. The products, at the assayed concentrations, were in contact with the cell growing monolayer for 72 hours and incubated at 37° C., 5% CO2. Finally, cells were growth arrested adding […] of cold TCA (Trichloroacetic acid) 50%, (final concentration of 10% in the well). Microplate was then maintained at 4° C. for over 60 min to fix cellular proteins till initiation of washing and staining with SRB.
(§4) Cell viability (%)=(Cell population of the treated well/Maximum cell population of the Standard curve)×100.
(§5) Mean viability values for each concentration were calculated from the values obtained for each well in which that concentration was assayed.

HepG2 = assay: In vitro cytotoxicity, SRB method; assay type: cell-based; conditions: Homo sapiens, HepG2 hepatoma, 72 hours
Description: as §2, §3, §4, §5

B16-F1 = assay: In vitro cytotoxicity, SRB method; assay type: cell-based; conditions: Mus musculus, B16-F1 melanoma, 72 hours
Description: as §2, §3, §4, §5

Malm-3M = assay: In vitro cytotoxicity, SRB method; assay type: cell-based; conditions: Malm-3M melanoma, 72 hours
Description: as §2, §3, §4, §5

NCI-H460 = assay: In vitro cytotoxicity, SRB method; assay type: cell-based; conditions: Homo sapiens, NCI-H460 lung, 72 hours
Description: as §2, §3, §4, §5

HCT116 = assay: In vitro cytotoxicity, SRB method; assay type: cell-based; conditions: Homo sapiens, HCT-116, HCT116 colon cancer, 72 hours
Description: as §2, §3, §4, §5

SW260 = assay: In vitro cytotoxicity, SRB method; assay type: cell-based; conditions: SW260 colon cancer, 72 hours
Description: as §2, §3, §4, §5

resting human PBLs = assay: Apoptosis of resting human PBLs; assay type: cell-based
Description: To isolate normal peripheral blood lymphocytes (PBLs), mononuclear cells were obtained from fresh human peripheral blood from healthy volunteers by centrifugation on Ficoll-Hypaque density gradients, washed with phosphate-buffered saline (PBS), and resuspended in RPMI-1640 medium containing 10% (v/v) heat-inactivated FBS, 2 mM L-glutamine, 100 U/ml penicillin, and 100 μg/ml streptomycin as described (Cabaner et al. Br. J. Pharmacol 127:813-825.1999). Monocytes were depleted by culture dish adherence after overnight incubation. Nonadherent cells (lymphocytes) were washed with PBS and collected. PBL preparations were typically 70-75% CD3^+, 24-29% CD 19^+, and less than 0.4% CD 14^+.

[1] = Cytotoxicity for human non-tumoral cells, XTT; assay type: cell-based; conditions: HUVEC cells (primary, from human cords)
Description: (§6) The cytotoxicity of the compounds for human non-tumoral cells was studied in fibroblasts, HUVEC cells and resting PBLs (Peripheral Blood lymphocytes).
HUVEC cells were obtained by treating human cords with collagenase type I, […] in Hank's medium incubating 20 minutes at 37° C. Cells were collected afterwards and cultivated in medium M199 with supplements of 20% FBS, 1% P/S and 25 mg/500 ml of medium ECGF, Cells were grown on a 0.2% gelatin matrix.
(§7) Distinct amounts of exponentially growing cells were seeded in 96-well flat-bottomed microtiter plates in a final volume of 100 μl were seeded in 96-well flat-bottomed microtiter plates, and incubated at 37° C. in a humidified atmosphere of 5% CO2/95% air for 24 h to allow the cells attach to the plates. Then, cells were incubated with different concentrations of the assayed compound at 37° C. under the 5% CO2/95% air atmosphere for 72 h. Cell proliferation was quantified using the XTT cell proliferation kit (Roche Molecular Biochemicals, Mannheim, Germany) following the manufacturer's instructions. Briefly, a freshly prepared mixture solution (50 μl) of XTT labelling reagent and PMS (N-methyldibenzopyrazine methyl sulfate) electron coupling reagent was added to each well. The resulting mixtures were further incubated for 4 h in a humidified atmosphere (37° C., 5% CO2), and the absorbance of the formazan product generated was measured with a microtiter plate reader at a test wavelength of 490 nm and a reference wavelength of 655 nm. The IC50 (50% inhibitory concentration) was then calculated as the drug concentration causing a 50% inhibition of cell proliferation. Data are shown as mean values of four independent experiments each performed in triplicate.

[2] = Cytotoxicity for human non-tumoral cells, XTT; assay type: cell-based; conditions: Fibroblasts
Description: as §6, §7

C(CCCn1ccnc1)=C(c1ccccc1)c1ccccc1 [Compound 28, 1-(5,5-Diphenyl-pent-4-enyl)-1H-imidazole]
Inhibition of TNFr (TNFr): Inhibition of TNFr 25%
Inhibition of IL4r (IL4r): Inhibition of IL4r 75%
Inhibition of IL6r (IL6r): Inhibition of IL6r down-low (*)

Cl.FC(F)(F)Oc1cccc(CNCCCC=C(c2ccccc2)c2ccccc2)c1
melting point: 102.4 to 104 °C

Cl.FC(F)(F)Oc1ccc(CNCCC=C(c2ccccc2)c2ccccc2)cc1
melting point: 126 to 128 °C

Cl.FC(F)(F)Oc1ccccc1CNCCCC=C(c1ccccc1)c1ccccc1 [Compound 10, (5,5-diphenyl-pent-4-enyl)-(2-trifluoromethoxybenzyl)amine hydrochloride]
Inhibition of TNFr (TNFr): Inhibition of TNFr up 30%
Inhibition of IL4r (IL4r): Inhibition of IL4r total
Inhibition of IL6r (IL6r): Inhibition of IL6r down 5%
melting point: 109 to 110.7 °C

CC(C)n1ncc2c(NCCCCC=C(c3ccccc3)c3ccccc3)ncnc21 [Compound 44, (6,6-Diphenyl-hex-5-enyl)-(1-isopropyl-1H-pyrazolo[3,4-d]pyrimidin-4-yl)amine hydrochloric salt]
pIC50 (SF268): 4.51
pIC50 (HepG2): 4.30 to 5.30
pIC50 (B16-F1): 5.10
pIC50 (Malm-3M): 4.40
pIC50 (NCI-H460): 5.03
pIC50 (HCT116): 4.30 to 5.30
pIC50 (SW260): 4.30

C(CCCNCc1ccccn1)=C(c1ccccc1)c1ccccc1.Cl
melting point: 125 to 126.9 °C

Cl.FC(F)(F)c1ccc(CNCCCC=C(c2ccccc2)c2ccccc2)cc1
melting point: 121.4 to 122.7 °C

COc1cccc2c1C(=O)c1c(O)c3c(c(O)c1C2=O)C[C@@](O)(C(=O)CO)C[C@@H]3O[C@H]1C[C@H](N)[C@H](O)[C@H](C)O1 [Doxorubicin, reference compound]
% Apoptosis PBLs (resting human PBLs; 10^−4 M): 21.7%
% Apoptosis PBLs (resting human PBLs; 10^−5 M): 13.2%
IC50 at 72 h [1]: 0.23 µM

Cl.FC(F)(F)Oc1ccc(CNCCCCC=C(c2ccccc2)c2ccccc2)cc1
melting point: 109 to 110.5 °C

C(CCCCNc1ncnc2[nH]ncc12)=C(c1ccccc1)c1ccccc1 [Compound 40, (6,6-Diphenyl-hex-5-enyl)-(1H-pyrazolo[3,4-d]pyrimidin-4-yl)amine]
pIC50 (SF268): 4.48
pIC50 (HepG2): 4.30 to 5.30
pIC50 (B16-F1): 5.05
pIC50 (Malm-3M): 4.52
pIC50 (NCI-H460): 5.09
pIC50 (HCT116): 4.30 to 5.30
pIC50 (SW260): 4.30
IC50 at 72 h [1]: 36 µM

CC(=O)O[C@H]1C(=O)[C@@]2(C)[C@H]([C@H](OC(=O)c3ccccc3)[C@]3(O)C[C@H](OC(=O)[C@H](O)[C@@H](NC(=O)c4ccccc4)c4ccccc4)C(C)=C1C3(C)C)[C@]1(OC(C)=O)CO[C@@H]1C[C@@H]2O [Taxol, reference compound]
IC50 at 72 h [2]: 0.00075 µM
IC50 at 72 h [1]: 0.00047 µM

Clc1nc(NCCCCC=C(c2ccccc2)c2ccccc2)c2nc[nH]c2n1 [Compound 29, (2-Chloro-9H-purin-6-yl)-(6,6-diphenyl-hex-5-enyl)-amine]
melting point: 205.7 to 207 °C

C(CCCNCc1ccsc1)=C(c1ccccc1)c1ccccc1.Cl
melting point: 108 to 109.7 °C

COc1ccc(CNCCCC=C(c2ccccc2)c2ccccc2)cc1.Cl
melting point: 69.2 to 73.8 °C

C(CCCNc1ncnc2[nH]ncc12)=C(c1ccccc1)c1ccccc1 [Compound 41, (5,5-Diphenyl-pent-4-enyl)-(1H-pyrazolo[3,4-d]pyrimidin-4-yl)amine]
pIC50 (SF268): 4.77
pIC50 (HepG2): 4.30 to 5.30
pIC50 (B16-F1): 5.22
pIC50 (Malm-3M): 4.36
pIC50 (NCI-H460): 5.70
pIC50 (HCT116): 4.30 to 5.30
pIC50 (SW260): 4.30 to 5.30

C(CCNCc1cccs1)=C(c1ccccc1)c1ccccc1.Cl [Compound 13, (4,4-diphenyl-but-3-enyl)-thiophen-2-ylmethyl-amine hydrochloride]
Inhibition of TNFr (TNFr): Inhibition of TNFr total
Inhibition of IL4r (IL4r): Inhibition of IL4r total
Inhibition of IL6r (IL6r): Inhibition of IL6r total
melting point: 163 to 165.5 °C

Cc1nc2ccccc2n1CCCC=C(c1ccccc1)c1ccccc1 [Compound 27]
Inhibition of TNFr (TNFr): Inhibition of TNFr total
Inhibition of IL4r (IL4r): Inhibition of IL4r total
Inhibition of IL6r (IL6r): Inhibition of IL6r low-75%
